Results: ChEMBL document CHEMBL1201862, “PubChem BioAssay data set” (2004)
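Exposure lasted 48 hours, with cells grown in 96-well plates and compounds tested at five concentrations. Abbreviation: GI50, concentration required for 50% inhibition of growth.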 Calls of active or inactive are those of the source. Rule as the data show it: active = GI50 up to about 1.1 µM and inactive = higher.

Experiments:
Test in all cases: NCI-60 cell line screen, 48 h
786-0 = system: 786-0
A498 = system: A498
ACHN = system: ACHN
COLO 205 = system: COLO 205
HCC 2998 = system: HCC 2998
HT-29 = system: HT-29
K562 = system: K562
M14 = system: M14
NCI-H460 = system: NCI-H460
OVCAR-5 = system: OVCAR-5
RXF 393 = system: RXF 393
SK-MEL-28 = system: SK-MEL-28
SNB-75 = system: SNB-75
SNB-78 = system: SNB-78
SR = system: SR
U-251 = system: U-251
UACC-62 = system: UACC-62
MCF7 = system: MCF7
NCI/ADR-RES = system: NCI/ADR-RES
T47D = system: T47D

Measured: GI50

COC1(OC)CC2C(=O)N(Cc3ccccc3)C1C(S(=O)(=O)c1ccccc1)C2S(=O)(=O)c1ccccc1 (configuration not stated)
inactive: 786-0 16.9 µM | A498 18.2 µM | ACHN 10.6 µM | COLO 205 4.53 µM | HCC 2998 17.1 µM | HT-29 11.6 µM | K562 7.48 µM | M14 14.8 µM | NCI-H460 27.7 µM | OVCAR-5 19.9 µM | RXF 393 12.6 µM | SK-MEL-28 13.7 µM | SNB-75 14.2 µM | SNB-78 18.5 µM | SR 5.31 µM | U-251 13.6 µM | UACC-62 13.4 µM

O=C1NC(=O)C2C(=O)NC(=O)C1C2c1c(Cl)cccc1Cl (configuration not stated)
inactive: 786-0 > 61.8 µM | A498 > 100 µM | ACHN > 100 µM | COLO 205 > 41.8 µM | HCC 2998 > 60.5 µM | HT-29 > 92.5 µM | K562 > 49.4 µM | M14 > 100 µM | NCI-H460 > 42.2 µM | OVCAR-5 > 100 µM | RXF 393 > 43.1 µM | SK-MEL-28 > 100 µM | SNB-75 > 63.5 µM | SNB-78 > 100 µM | SR > 100 µM | U-251 > 66.1 µM | UACC-62 > 100 µM

O=C1C(CN2CCCCC2)CCCC1CN1CCCCC1 (configuration not stated)
inactive: 786-0 8.26 µM | ACHN 18 µM | HCC 2998 51.3 µM | HT-29 20.1 µM | M14 20.7 µM | MCF7 2.53 µM | NCI/ADR-RES 18.5 µM | OVCAR-5 > 55.6 µM | RXF 393 16.3 µM | SK-MEL-28 17.4 µM | SNB-78 21.4 µM | SR 15.3 µM | T47D 1.64 µM | U-251 > 100 µM | UACC-62 > 55.7 µM

O=C(Nc1ccccc1)Oc1ccccc1C1CCCCC1
inactive: 786-0 17.2 µM | A498 30.6 µM | COLO 205 15.8 µM | HCC 2998 25.9 µM | HT-29 20.4 µM | K562 17.9 µM | M14 23.6 µM | NCI-H460 20 µM | OVCAR-5 11.8 µM | RXF 393 2.96 µM | SK-MEL-28 29.6 µM | SNB-75 6.38 µM | SNB-78 17.7 µM | SR 14.8 µM | U-251 12 µM | UACC-62 25.5 µM

CN(C)CC1CCCC/C1=N\OC(=O)c1ccccc1 (configuration not stated)
inactive: 786-0 > 100 µM | A498 > 100 µM | ACHN > 100 µM | COLO 205 > 100 µM | HCC 2998 > 100 µM | HT-29 > 100 µM | K562 > 100 µM | M14 > 100 µM | NCI-H460 > 100 µM | OVCAR-5 > 100 µM | RXF 393 > 100 µM | SK-MEL-28 > 100 µM | SNB-75 > 100 µM | SNB-78 > 100 µM | SR > 100 µM | U-251 > 100 µM | UACC-62 > 100 µM
